# Measurements as given in patent publication US9603869B2, “Lithium co-crystals and an additional neuropsychiatric agent for treatment of neuropsychiatric disorders” (UNIVERSITY OF SOUTH FLORIDA, priority 2015, dated 2017).
# Read-outs that look alike come from different tables or passages of the source.
# Legend:
# [1] = tested on: Mouse primary microglial cells; assay: Autophagy (LC3B staining) in mouse primary microglial cells; type: cell-based; conditions: 10 mM, 18 hours; for autophagy (LC3B fluorescence intensity of autophagosomes and cytosol): vs PBS control; for difference in fluorescence intensity of autophagosomes and cytosol versus Li2CO3: P>0.05
# Text: FIG. 8. […] The fluorescence intensity of the autophagosomes and the cytosol were quantified using SLIDEBOOK™ digital microscopy software.
# The fluorescence intensity of the autophagosomes and the cytosol were quantified using Slidebook™ digital microscopy software (mean±SD) (FIG. 19).
# N2a cells = assay: Neuronal cell differentiation of N2a cells (β-tubulin III, phospho-synapsin I); type: cell-based, mouse; conditions: 10 mM, 24 hours; for difference in β-tubulin III and phospho-synapsin I immunofluorescence and WB between Li2CO3, LiCl and L-proline: P>0.05
# Protocol: FIGS. 5A-5C. […] These cells were then permeabilized with 0.05% Triton X-100 for 5 minutes, washed and stained with mouse anti-β-tubulin III monoclonal antibody ([…]™) and rabbit anti-phospho-Synapsin I (Ser^62, Ser^67) polyclonal antibody (EMD Millipore) overnight at 4° C. […] Confocal images were taken by Olympus fluoview FV1000 laser scanning confocal microscope (Tokyo, Japan).
# These cells were then permeabilized with 0.05% Triton X-100 for 5 min, washed, and stained with mouse anti-β-tubulin III monoclonal antibody ([…]™) and rabbit anti-phospho-synapsin I (Ser^62, Ser^67) polyclonal antibody (EMD Millipore) overnight at 4° C. […] Confocal images were taken by Olympus Fluoview™ FV1000 laser scanning confocal microscope (Tokyo, Japan) (FIG. 5A).
# [2] = tested on: Murine neuronal stem cells; assay: Murine neuronal stem cell differentiation (MAP2, total tau, phospho-synapsin I); type: cell-based, mouse; conditions: 10 mM, 4 days; for difference in MAP2, phospho-synapsin I and total tau immunofluorescence and WB between Li2CO3, LiCl and L-proline: murine neuronal stem cells, P>0.05
# Protocol: FIGS. 6A-6F. […] These cells were then permeabilized, washed and stained with mouse anti-MAP2 monoclonal antibody (EMD Millipore) or mouse anti-total tau (tau46) antibody overnight at 4° C. […] Confocal images were taken by Olympus fluoview FV1000 laser scanning confocal microscope. […] DAPI staining (Life Technologies) was used to detect nuclear DNA. Confocal images were taken by Olympus Fluoview™ FV1000 laser scanning confocal microscope (FIG. 17A). […] The band density ratios of MAP2 to β-actin, total tau to β-actin, and phospho-synapsin I to β-actin are presented as mean±S.D (FIGS. 17B-1, 17B-2, and 17B-3, respectively).
# [3] = tested on: Human neural stem cells (H9-Derived); assay: Human neuronal stem cell differentiation (MAP2, GFAP); type: cell-based; conditions: 10 mM, 14 days; for difference in MAP2 and GFAP immunofluorescence and WB between Li2CO3, LiCl and L-proline: human neural stem cells, P>0.05
# Text: Human neural stem cells (H9-Derived) were obtained from Life technologies and cultured with StemPro® NSC SFM media. […] DAPI was used to detect nuclear DNA. Confocal images were taken by Olympus Fluoview™ FV1000 laser scanning confocal microscope (FIG. 18A).
# COX2 [4] = assay: COX2 expression Western blot in human renal proximal tubule (HRPT) cells; conditions: 0 to 30 mM, 12 hours
# Text: These cells were then lysed with cell lysis buffer and analyzed by WB for COX2, total GSK3β and phospho GSK3β (Ser9 and Thr390) expression using anti-COX2 antibody (FIG. 7A, ABCAM®) and anti-phospho- and total GSK3β antibodies (FIG. 7B).
# These cells were then lysed with cell lysis buffer and analyzed by WB for COX2, total GSK3β and phospho GSK3β (Ser^9) expressions using anti-COX2 antibody (FIG. 20A, Abcam®) and anti-phospho- and total GSK3β antibodies (FIG. 20B).
# GSK3β [5] = assay: GSK3β phosphorylation Western blot in human renal proximal tubule (HRPT) cells; type: cell-based; conditions: 0 to 30 mM, 12 hours
# COX2 [6] = conditions: Tg2576 mice, diet 8 weeks, lithium 2.25 mmol/kg/day
# [7] = tested on: β-amyloid pathology in Tg2576 mice; conditions: diet 8 weeks, lithium 2.25 mmol/kg/day, Li2CO3 vs control NIH31 diet
# Protocol: All mice received normal drinking water ad libitum. […] Mouse brain tissue sections and homogenates were prepared from each mouse after treatment. Half-brain coronal sections were analyzed by Aβ antibody 4G8 staining (FIG. 14A). Percentage of 4G8 positive plaques (mean±SD) was quantified by image analysis (28, 29) (FIG. 14B). Total soluble and insoluble Aβ40,42 peptides from homogenates were analyzed by ELISA, and represented as picograms of Aβ peptides per mg of total protein (FIG. 14C).
# tau = conditions: Tg2576 mice, diet 8 weeks, 2.25 mmol/kg/day; LISPRO vs Li2CO3-treated, Li2CO3 vs control NIH31 diet
# Text: (§1) Inhibitory phosphorylation status of GSK3β was detected by anti-phospho-GSK3β (Ser^9) [pGSK3β (Ser^9)] antibody.
# GSK3β [8] = conditions: Tg2576 mice, diet 8 weeks, 2.25 mmol/kg/day; LISPRO vs Li2CO3-treated, Li2CO3 vs control NIH31 diet
# Text: as §1
# [9] = C57BL/6J mice, diet 1 or 2 weeks, lithium 1.125 or 2.25 mmol/kg/day
# Protocol: All mice received normal drinking water ad libitum. Statistical analysis was carried out following ANOVA analysis.
# [10] = rats, 4 mEq/kg lithium, oral gavage
# cytokines and sCD40L = conditions: Tg2576 mice, diet 8 weeks, 2.25 mmol/kg/day
# Text: In addition, spleens from these mice were isolated and splenocytes cultured as described previously (30).
# COX2 [11] = conditions: C57BL/6J male mice, diet 1 or 2 weeks, lithium 1.125 and 2.25 mmol/kg/day
# Text: All mice received normal drinking water ad libitum. Kidneys were collected after treatment and analyzed by immunohistochemistry for COX2 expression in the renal medulla (FIG. 21A). In addition, the kidney microsomal proteins were extracted to assess COX2 expression by WB (FIGS. 21B-1, 21B-2). Data are expressed as mean±SD in duplicates from six mice in each group (FIG. 21B-3).
# [12] = tested on: primary microglia isolated from 3XTg-AD mice; conditions: microglia from older 3XTg-AD mice treated at minimum dose, vs Li2CO3 or control diet
# Text: The inventors will fully examine microglial pro-inflammatory MAPK, NF-kB and CD40 signaling pathways, cytokine secretion, Aβ phagocytosis capacity, markers of M1 or M2 phenotype and microglial autophagy (IMPase) ex vivo via immunohistochemistry, WB, RT-PCR and Flow analysis in primary microglia isolated from these mice. These methods and assays have been well established as previously published (56, 73, 75). The culturing of primary microglial cells from young and aged mice has been routinely conducted (28, 29, 73).
# primary microglial cells = tested on: primary microglial cells
# Protocol: FIGS. 4A-4C. […] Data are represented as mean percentage of CD40 expressing cells (±SD). […] Microglial cell culture supernatants were collected and subjected to cytokine ELISA as indicated. Data were represented as mean pg of TNFα or IL-12p70 per mg of total cellular protein (±SD). […] Cellular supernatants and lysates were analyzed for extracellular (top panel) and cell-associated (bottom panel) FITC-Aβ42 using a fluorometer. Data are represented as the relative fold of mean fluorescence change (mean±SD), calculated as the mean fluorescence for each sample at 37° C. divided by mean fluorescence at 4° C.
# Data are represented as mean percentage of CD40-expressing cells (±SD) (FIG. 4A). […] Microglial cell culture supernatants were collected and subjected to cytokine ELISA as indicated. Data are represented as mean pg of TNFα or IL-12p70 per mg of total cellular protein (±SD) (FIG. 4B). […] Cellular supernatants and lysates were analyzed for extracellular (top panel) and cell-associated (bottom panel) FITC-Aβ42 using a fluorometer (FIG. 4C). Data are represented as the relative fold of mean fluorescence change (mean±SD), calculated as the mean fluorescence for each sample at 37° C. divided by mean fluorescence at 4° C.
# Aβ40,42 peptides = conditions: N2a/APPwt cells, LISPRO 0, 2.5, 5 and 10 mM, 12 h
# Text: (§2) FIGS. 1A and 1B. […] The cell lysates were routinely prepared from these cells for Western blot (WB) analysis.
# Notch processing = conditions: N2a/APPwt/Notch-ΔE cells, 0, 2.5, 5 and 10 mM, 5 hours, compared to DFK-167
# Text: as §2
# 3XTg-AD mice = conditions: chow 4 months
# Text: In order to reduce potential lithium toxicity in the kidney, a saline bottle will be provided in addition to water in all cages. Behavior of animals in these groups and in non-transgenic untreated wild-type mice will be evaluated after treatment, with a established behavioral battery which measures multiple cognitive domains, including open field, novel object recognition, radial arm water maze, and contextual and cued fear conditioning (42-46).
# The behavioral battery will include the Balance Beam Task, to evaluate vestibular and general motor function and account for any problems that may occur with the rest of the tests due to motor (and not behavioral/cognitive) impairment.
# GSK3β [13] = conditions: 12 hours
# Protocol: FIGS. 2A and 2B. […] Cell lysates were prepared and subjected to WB analysis with specific anti-phospho-GSK3β (Ser9) and total GSK3β antibodies. […] WB results are representative of three independent experiments.
# WB results are representative of three independent experiments.
Compound,autophagy (LC3B fluorescence intensity of autophagosomes and cytosol) [1],"difference in β-tubulin III and phospho-synapsin I immunofluorescence and WB between Li2CO3, LiCl and L-proline (N2a cells)","difference in MAP2, phospho-synapsin I and total tau immunofluorescence and WB between Li2CO3, LiCl and L-proline [2]","difference in MAP2 and GFAP immunofluorescence and WB between Li2CO3, LiCl and L-proline [3]",GSK3β activity / GSK3β (Ser9) phosphorylation (WB) (GSK3β [5]),β-amyloid pathology (4G8 positive Aβ plaques in brain sections) [7],difference in lithium levels in serum and brain homogenate between Li2CO3- and lithium salicylate-treated mice [9],difference in COX2 expression between Li2CO3 and LiCl (COX2 [4]),difference in GSK3β phosphorylation between Li2CO3 and LiCl (GSK3β [5]),difference in fluorescence intensity of autophagosomes and cytosol versus Li2CO3 [1],other results
O=C(O)[C@@H]1CCCN1 [L-proline],failed to promote any notable autophagy,no notable or significant difference,no significance difference,no significance difference,no change,,,,,,COX2 expression (WB) (COX2 [4]): no change
"O=C([O-])[O-].[Li+].[Li+] [Li2CO3, lithium carbonate]",significant enhancement of autophagy,no notable or significant difference,no significance difference,no significance difference,,no notable or significant difference,no significant difference,no notable differences,no notable differences,,kidney (renal) COX2 expression versus control mice (COX2 [6]): enhanced; ratio of p-tau (Thr231) to total tau in brain homogenates (tau): no notable and significant difference; ratio of pGSK3β (Ser9) to total GSK3β in brain homogenates (GSK3β [8]): no notable and significant difference; brain lithium level profile [10]: spike in brain lithium levels at 24 hours; plasma lithium level at 48 hours [10]: nearly undetectable; plasma lithium pharmacokinetic profile [10]: sharp peak and rapid elimination; cytokine levels in plasma and splenocyte cultured media (cytokines and sCD40L; vs control NIH31 diet): no notable or significant difference
[Cl-].[Li+] [LiCl],,no notable or significant difference,no significance difference,no significance difference,,,,no notable differences,no notable differences,no significance difference,
O=C([O-])c1ccccc1O.[Li+] [lithium salicylate],,,,,,,no significant difference,,,,kidney microsomal COX2 expression levels versus control NIH31 diet (COX2 [11]): no significant difference
Lithium Salicylate Proline [LISPRO],significant enhancement of autophagy,,,,Markedly Reduces GSK3β Activity,Reduces β-Amyloid Pathology,,,,no significance difference,"microglial M2 phenotype ex vivo [12]: will strongly preserve an M2 phenotype; microglial phagocytosis of Aβ (FITC-Aβ42, extracellular and cell-associated) (primary microglial cells; 10 mM pre-treatment 6 hours, 1 μM aged FITC-Aβ42 1 hour): Enhances Microglial Phagocytosis of Aβ; IFNγ-induced CD40 expression (FACS, percentage of CD40-expressing cells) (primary microglial cells; 8 hours co-treatment): significant dose-dependent decreases; pro-inflammatory microglial activation induced by IFNγ and CD40 signaling (FACS, TNFα and IL-12p70 ELISA) (primary microglial cells; IFNγ or/and CD40L 1 μg/mL, 8 hours): Inhibits Microglial Activation-Induced by IFNγ and CD40 Signaling; Aβ40, Aβ42 peptides secreted in cell culture media (Aβ generation) (Aβ40,42 peptides): reduces Aβ generation; Notch cleavage (WB, c-myc and cleaved Notch antibodies) (Notch processing): did not inhibit Notch cleavage; neuronal cell differentiation (β-tubulin III, phospho-synapsin I) (N2a cells): Markedly Promotes Neuronal Cell Differentiation; murine neuronal stem cell differentiation (MAP2, total tau, phospho-synapsin I) [2]: Enhances Murine Neuronal Stem Cell Differentiation; human neuronal stem cell differentiation (MAP2, GFAP) [3]: Enhances Human Neuronal Stem Cell Differentiation; effectiveness on abolishing AD-like cognitive impairment (3XTg-AD mice): more effective than equimolar doses of Li2CO3; long-term and short-term memory impairment (behavioral battery) (3XTg-AD mice; prophylactic and therapeutic groups): will reverse or abolish long-term and short-term memory impairment; phosphorylated GSK3β (Ser9) level (WB) (GSK3β [13]; SH-SY5Y cells): notably elevated; phosphorylated GSK3β (Ser9) level (WB) (GSK3β [13]; primary neuronal cells): notably elevated; anti-inflammatory/Th2 responses (cytokine ELISA) (cytokines and sCD40L; oral): Promotes Anti-Inflammatory/Th2 Responses; sCD40L in the CNS (brain homogenate ELISA) (cytokines and sCD40L; oral): Decreases sCD40L"
